The structures appear in SMILES notation.

The record followed here is the supplement of paper PMC10307832.

One assay concerns ABC-1. The assay is described as follows: relative viability (nuclei count vs DMSO), 5 days (fraction); higher = more cells survive. To be noted: first compound 0.253 µM. Put shortly: (§1)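 Each reported value is a median over duplicate plates. It expresses relative viability: treated-well nuclei count divided by vehicle-well nuclei count. Lung cancer cell lines in 1536-well plates were dosed by pin tool a day after seeding, alone with one drug or with a fixed anchor-drug dose plus five library-drug doses (not always all listed) in √10 steps, and nuclei were counted after 5 days.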
`C=C1C(=O)O[C@@H](CCCCCCCC)[C@@H]1C(=O)O` [C-75] + Nc1ncn([C@H]2C[C@H](O)[C@@H](CO)O2)c(=O)n1 [Decitabine] (partner 2 µM) registered a relative viability of 1.18.

The same assay, now with this note: first compound 0.8 µM.
As for `Oc1nc(-c2ccc(C(F)(F)F)cc2)nc2c1CSCC2` [XAV939] + O=C(CCCCCCC(=O)Nc1ccccc1)NO [Vorinostat] (partner 1 µM), the relative viability was 1.12.

The molecule `Oc1nc(-c2ccc(C(F)(F)F)cc2)nc2c1CSCC2` [XAV939] + O=C(c1cc(Cc2n[nH]c(=O)c3ccccc23)ccc1F)N1CCN(C(=O)C2CC2)CC1 [Olaparib] (partner 8 µM) came in with a relative viability of 1.25.

Take `Oc1nc(-c2ccc(C(F)(F)F)cc2)nc2c1CSCC2` [XAV939] + CC(=O)c1c(C)c2cnc(Nc3ccc(N4CCNCC4)cn3)nc2n(C2CCCC2)c1=O [Palbociclib] (partner 0.5 µM): the relative viability turned out to be 0.578.

With `C=C1C(=O)O[C@@H](CCCCCCCC)[C@@H]1C(=O)O` [C-75] + CC(=O)c1c(C)c2cnc(Nc3ccc(N4CCNCC4)cn3)nc2n(C2CCCC2)c1=O [Palbociclib] (partner 0.5 µM), the relative viability came to 0.559.

Molecule `C=C1C(=O)O[C@@H](CCCCCCCC)[C@@H]1C(=O)O` [C-75] + Nc1ncn([C@H]2C[C@H](O)[C@@H](CO)O2)c(=O)n1 [Decitabine] (partner 2 µM) yielded a relative viability of 1.08.

Staying with this assay, now noted: first compound 2.53 µM.
As to `Oc1nc(-c2ccc(C(F)(F)F)cc2)nc2c1CSCC2` [XAV939] + O=C(CCCCCCC(=O)Nc1ccccc1)NO [Vorinostat] (partner 1 µM), the relative viability amounted to 0.568.

With `Oc1nc(-c2ccc(C(F)(F)F)cc2)nc2c1CSCC2` [XAV939] + O=C(c1cc(Cc2n[nH]c(=O)c3ccccc23)ccc1F)N1CCN(C(=O)C2CC2)CC1 [Olaparib] (partner 8 µM), the relative viability is 0.61.

The molecule `Oc1nc(-c2ccc(C(F)(F)F)cc2)nc2c1CSCC2` [XAV939] + CC(=O)c1c(C)c2cnc(Nc3ccc(N4CCNCC4)cn3)nc2n(C2CCCC2)c1=O [Palbociclib] (partner 0.5 µM) registered a relative viability of 0.343.

In turn, `C=C1C(=O)O[C@@H](CCCCCCCC)[C@@H]1C(=O)O` [C-75] + CC(=O)c1c(C)c2cnc(Nc3ccc(N4CCNCC4)cn3)nc2n(C2CCCC2)c1=O [Palbociclib] (partner 0.5 µM) returned a relative viability of 0.494.

`C=C1C(=O)O[C@@H](CCCCCCCC)[C@@H]1C(=O)O` [C-75] + Nc1ncn([C@H]2C[C@H](O)[C@@H](CO)O2)c(=O)n1 [Decitabine] (partner 2 µM) yielded a relative viability of 0.72.

The assay is the same for the next values; noted with them: first compound 8 µM.
On to `C=C1C(=O)O[C@@H](CCCCCCCC)[C@@H]1C(=O)O` [C-75] + CC(=O)c1c(C)c2cnc(Nc3ccc(N4CCNCC4)cn3)nc2n(C2CCCC2)c1=O [Palbociclib] (partner 0.5 µM), for which the relative viability was 0.494.

The molecule `C=C1C(=O)O[C@@H](CCCCCCCC)[C@@H]1C(=O)O` [C-75] + Nc1ncn([C@H]2C[C@H](O)[C@@H](CO)O2)c(=O)n1 [Decitabine] (partner 2 µM) displayed a relative viability of 0.81.

The next assay has as its system BEN. Described as above. The following applies: first compound 0.08 µM. In a few lines: as §1
`Oc1nc(-c2ccc(C(F)(F)F)cc2)nc2c1CSCC2` [XAV939] + O=C(CCCCCCC(=O)Nc1ccccc1)NO [Vorinostat] (partner 1 µM) displayed a relative viability of 0.556.

The molecule `Oc1nc(-c2ccc(C(F)(F)F)cc2)nc2c1CSCC2` [XAV939] + O=C(c1cc(Cc2n[nH]c(=O)c3ccccc23)ccc1F)N1CCN(C(=O)C2CC2)CC1 [Olaparib] (partner 8 µM) displayed a relative viability of 1.14.

In turn, `Oc1nc(-c2ccc(C(F)(F)F)cc2)nc2c1CSCC2` [XAV939] + CC(=O)c1c(C)c2cnc(Nc3ccc(N4CCNCC4)cn3)nc2n(C2CCCC2)c1=O [Palbociclib] (partner 0.5 µM) showed a relative viability of 0.508.

Regarding `C=C1C(=O)O[C@@H](CCCCCCCC)[C@@H]1C(=O)O` [C-75] + CC(=O)c1c(C)c2cnc(Nc3ccc(N4CCNCC4)cn3)nc2n(C2CCCC2)c1=O [Palbociclib] (partner 0.5 µM), the relative viability came to 0.509.

In turn, `C=C1C(=O)O[C@@H](CCCCCCCC)[C@@H]1C(=O)O` [C-75] + Nc1ncn([C@H]2C[C@H](O)[C@@H](CO)O2)c(=O)n1 [Decitabine] (partner 2 µM) returned a relative viability of 0.764.

Staying with this assay, now noted: first compound 0.253 µM.
`Oc1nc(-c2ccc(C(F)(F)F)cc2)nc2c1CSCC2` [XAV939] + O=C(CCCCCCC(=O)Nc1ccccc1)NO [Vorinostat] (partner 1 µM) displayed a relative viability of 0.587.

Molecule `Oc1nc(-c2ccc(C(F)(F)F)cc2)nc2c1CSCC2` [XAV939] + O=C(c1cc(Cc2n[nH]c(=O)c3ccccc23)ccc1F)N1CCN(C(=O)C2CC2)CC1 [Olaparib] (partner 8 µM) registered a relative viability of 1.04.

`Oc1nc(-c2ccc(C(F)(F)F)cc2)nc2c1CSCC2` [XAV939] + CC(=O)c1c(C)c2cnc(Nc3ccc(N4CCNCC4)cn3)nc2n(C2CCCC2)c1=O [Palbociclib] (partner 0.5 µM) yielded a relative viability of 0.438.

As for `C=C1C(=O)O[C@@H](CCCCCCCC)[C@@H]1C(=O)O` [C-75] + CC(=O)c1c(C)c2cnc(Nc3ccc(N4CCNCC4)cn3)nc2n(C2CCCC2)c1=O [Palbociclib] (partner 0.5 µM), the relative viability was determined as 0.483.

Molecule `C=C1C(=O)O[C@@H](CCCCCCCC)[C@@H]1C(=O)O` [C-75] + Nc1ncn([C@H]2C[C@H](O)[C@@H](CO)O2)c(=O)n1 [Decitabine] (partner 2 µM) returned a relative viability of 0.733.

The same assay, now with this note: first compound 0.8 µM.
As to `Oc1nc(-c2ccc(C(F)(F)F)cc2)nc2c1CSCC2` [XAV939] + O=C(CCCCCCC(=O)Nc1ccccc1)NO [Vorinostat] (partner 1 µM), the relative viability was 0.514.

Molecule `Oc1nc(-c2ccc(C(F)(F)F)cc2)nc2c1CSCC2` [XAV939] + O=C(c1cc(Cc2n[nH]c(=O)c3ccccc23)ccc1F)N1CCN(C(=O)C2CC2)CC1 [Olaparib] (partner 8 µM) had a relative viability of 1.02.

As for `Oc1nc(-c2ccc(C(F)(F)F)cc2)nc2c1CSCC2` [XAV939] + CC(=O)c1c(C)c2cnc(Nc3ccc(N4CCNCC4)cn3)nc2n(C2CCCC2)c1=O [Palbociclib] (partner 0.5 µM), the relative viability worked out at 0.485.

The molecule `C=C1C(=O)O[C@@H](CCCCCCCC)[C@@H]1C(=O)O` [C-75] + CC(=O)c1c(C)c2cnc(Nc3ccc(N4CCNCC4)cn3)nc2n(C2CCCC2)c1=O [Palbociclib] (partner 0.5 µM) gave a relative viability of 0.46.

`C=C1C(=O)O[C@@H](CCCCCCCC)[C@@H]1C(=O)O` [C-75] + Nc1ncn([C@H]2C[C@H](O)[C@@H](CO)O2)c(=O)n1 [Decitabine] (partner 2 µM): the relative viability came to 0.654.

The assay is the same for the next values; noted with them: first compound 2.53 µM.
Molecule `Oc1nc(-c2ccc(C(F)(F)F)cc2)nc2c1CSCC2` [XAV939] + O=C(CCCCCCC(=O)Nc1ccccc1)NO [Vorinostat] (partner 1 µM) returned a relative viability of 0.418.
